# Measurements: publication PMC11651915, “Small molecule protein assembly modulators with pan-cancer therapeutic efficacy” (Open Biology, 2024)
# What was measured:
# [1] = tested on: SN12C; test: cells; settings: Homo sapiens, 48 h
# [2] = tested on: MOLT-4; test: cells; assay type: cell-based; settings: Homo sapiens, NCI-60, 48 h
# [3] = tested on: SR; test: cells; settings: Homo sapiens, 48 h
# [4] = tested on: MDA MB 436; test: Eurofins OncoPanel (CellTiter-Glo); assay type: cell-based; settings: Homo sapiens, 72 h, 3 days
# [5] = tested on: OVCAR-8; test: cells; settings: Homo sapiens, OVCAR-8, 48 h
# [6] = tested on: NCI-H460; test: cells; assay type: cell-based; settings: Homo sapiens, NCI-60, 48 h
# [7] = tested on: SK-MEL-28; test: cells; settings: Homo sapiens, SK-MEL-28, 48 h
# [8] = tested on: UACC-257; test: cells; settings: Homo sapiens, UACC-257, 48 h
# [9] = tested on: ACHN; test: cells; settings: Homo sapiens, 48 h
# [10] = tested on: A498; test: cells; settings: Homo sapiens, A498, 48 h
# [11] = tested on: OVCAR-4; test: cells; settings: Homo sapiens, OVCAR-4, 48 h
# [12] = tested on: OVCAR-3; test: cells; settings: Homo sapiens, OVCAR-3, 48 h
# [13] = tested on: MALME-3M; test: cells; assay type: cell-based; settings: Homo sapiens, NCI-60, 48 h
# [14] = tested on: BT-549; test: cells; settings: Homo sapiens, BT-549, 48 h
# [15] = tested on: EKVX; test: cells; settings: Homo sapiens, 48 h
# [16] = tested on: A549 and MRC-5 cells; test: Toxicity to A549 cancer line versus non-cancer MRC-5 cells; assay type: cell-based
# [17] = tested on: SW1353; test: Eurofins OncoPanel (CellTiter-Glo); assay type: cell-based; settings: Homo sapiens, 72 h, 3 days
# [18] = tested on: HT-29 colorectal cancer xenograft; test: HT-29 xenograft study; assay type: in vivo, mouse; settings: 17 days, PAV-951 3 mg kg^−1 IV, Irinotecan 60 mg kg^−1 IP
# Experimental: In the second animal efficacy study, human HT-29 colorectal adenocarcinoma cells were grafted subcutaneously onto mice. After tumour establishment, the animals received treatment with vehicle, 3 mg kg^−1 PAV-951 or 60 mg kg^−1 of a positive control drug Irinotecan. […]. Survival was not assessed as part of the study.
# HT-29 cells growing in HBSS medium were suspended in Matrigel. 0.1 ml of the cell suspension containing 5 × 10^6 cells were injected subcutaneously into the left flank region of male, 6–8 week old SCID mice. After tumour establishment, animals were divided randomly into groups of six and treated daily by IV with vehicle daily for 17 days, 3 mg kg^−1 PAV-951 three times per week for 17 days, or treated by IP with 60 mg kg^−1 Irinotecan every 4 days for 14 days. Tumour volume was calculated using the formula: (L × W2)/2 where L is the largest diameter and W is the smallest diameter of the tumour. Statistical analysis was performed using GraphPad Prism (Ver. 5.03). Statistical analysis of tumour growth inhibition between the Control and Treated groups was performed by using ne-way ANOVA followed by Dunnett’s test.
# [19] = in vivo; settings: female, Balb/c, mouse, ip
# [20] = tested on: SK-OV-3; test: cells; settings: Homo sapiens, SK-OV-3, 48 h
# [21] = tested on: BB1 patient biopsy derived cell line (benign adenoma); test: BB1 and BB5 adenoma versus carcinoma screen (confocal imaging); assay type: cell-based, human; settings: Homo sapiens, 60 h, percent ChromaLive negative
# [22] = tested on: PC-3; test: cells; assay type: cell-based; settings: Homo sapiens, NCI-60, 48 h
# [23] = tested on: FaDu; test: Eurofins OncoPanel (CellTiter-Glo); assay type: cell-based; settings: Homo sapiens, 72 h, 3 days
# [24] = tested on: SNB-75; test: cells; settings: Homo sapiens, SNB-75, 48 h
# [25] = tested on: MHH-PREB-1; test: Eurofins OncoPanel (CellTiter-Glo); settings: Homo sapiens, MHH-PREB-1, 72 h
# [26] = tested on: NCI-H23; test: cells; settings: Homo sapiens, NCI-H23, 48 h
# [27] = tested on: HCT-15; test: cells; settings: Homo sapiens, HCT-15, 48 h
# [28] = tested on: A549; test: In-house cancer cell viability screen (AlamarBlue); assay type: cell-based, human; settings: for IC50: Homo sapiens, AlamarBlue
# [29] = tested on: KM12; test: cells; settings: Homo sapiens, KM12, 48 h
# [30] = tested on: IGROV1; test: cells; assay type: cell-based; settings: Homo sapiens, IGROV-1, NCI-60, 48 h
# [31] = tested on: HOP-62; test: cells; assay type: cell-based; settings: Homo sapiens, NCI-60, 48 h
# [32] = tested on: H9; test: Eurofins OncoPanel (CellTiter-Glo); assay type: cell-based; settings: Homo sapiens, 72 h, 3 days
# [33] = tested on: HCC-2998; test: cells; settings: Homo sapiens, HCC 2998, 48 h
# [34] = tested on: BFTC-905; test: Eurofins OncoPanel (CellTiter-Glo); assay type: cell-based; settings: Homo sapiens, 72 h, 3 days
# [35] = tested on: RPMI-8226; test: cells; assay type: cell-based; settings: Homo sapiens, NCI-60, 48 h
# [36] = tested on: Hs 294T; test: Eurofins OncoPanel (CellTiter-Glo); assay type: cell-based; settings: Homo sapiens, 72 h, 3 days
smiles,measurement,setting,value
CC(C)CCNc1ncnc2cc(N3CCN(c4ccc5c(NCCC(C)C)ncnc5c4)CC3)ccc12 [PAV-951],GI50,[1],280 nM
same,CC50,[1]; read-out: LC50,3410 nM
same,GI50,[2],223 nM
same,GI50,[3],51.9 nM
same,CC50,[3]; read-out: LC50,1900 nM
same,IC50,[4],1460 nM
same,GI50,[5],521 nM
same,CC50,[5]; read-out: LC50,5180 nM
same,GI50,[6],203 nM
same,GI50,[7],1330 nM
same,CC50,[7]; read-out: LC50,5240 nM
same,GI50,[8],1710 nM
same,CC50,[8]; read-out: LC50,5980 nM
same,GI50,[9],586 nM
same,CC50,[9]; read-out: LC50,4280 nM
same,GI50,[10],1860 nM
same,CC50,[10]; read-out: LC50,5920 nM
same,GI50,[11],452 nM
same,CC50,[11]; read-out: LC50,4560 nM
same,GI50,[12],1050 nM
same,CC50,[12]; read-out: LC50,4790 nM
same,GI50,[13],1520 nM
same,GI50,[14],1590 nM
same,CC50,[14]; read-out: LC50,6040 nM
same,GI50,[15],1750 nM
same,CC50,[15]; read-out: LC50,6120 nM
same,toxicity to A549 cancer line compared with non-cancer MRC-5 cells,[16],selectively toxic to the A549 cancer line
same,IC50,[17],2210 nM
same,tumour growth inhibition (TGI),[18],52%
same,MTD,[19],2.5 mg/kg
same,GI50,[20],1550 nM
same,CC50,[20]; read-out: LC50,6340 nM
same,IC50,[21],3350 nM
same,GI50,[22],399 nM
same,IC50,[23],523 nM
same,GI50,[24],304 nM
same,CC50,[24]; read-out: LC50,4140 nM
same,IC50,[25],400 nM
same,GI50,[26],1470 nM
same,CC50,[26]; read-out: LC50,5620 nM
same,GI50,[27],173 nM
same,CC50,[27]; read-out: LC50,815 nM
same,change of potency when compound is added at the time of plating rather than 24 h later,[28]; A549,increased significantly
same,IC50,[28]; A549 (treatment 0 h after plating),2160 nM
same,IC50,"[28]; A549 (treatment 24 h after plating), 72 h",10900 nM
same,GI50,[29],227 nM
same,CC50,[29]; read-out: LC50,3850 nM
same,GI50,[30],287 nM
same,GI50,[31],358 nM
same,IC50,[32],165 nM
same,GI50,[33],967 nM
same,CC50,[33]; read-out: LC50,5130 nM
same,IC50,[34],701 nM
same,GI50,[35],213 nM
same,IC50,[36],1100 nM
